Experimental data reported in patent publication US10793526B2, “Hydantoin derivative compounds, methods of use and methods of treatment” (University of South Florida, priority 2016, dated 2020).
Read-outs that look alike come from different tables or passages of the source.

Experiments:
[1] = test system: P. aeruginosa (ATCC 27853); test: Minimum inhibitory concentration (MIC) assay, P. aeruginosa; format: cell-based, Pseudomonas aeruginosa; details: for MIC: Pseudomonas aeruginosa, ATCC27853, read-out: MIC (μg/mL) P.A.; for MIC / MIC (μg/mL) P.A.: Gram negative, ATCC 27853, 16 h incubation
Description: (§1) Minimum inhibitory concentrations (MICs) assay.^2
(§2) All compounds were tested against six different bacteria strains: methicillin-resistant S. aureus (MRSA, ATCC 33591), E. coli (ATCC 25922), methicillin-resistant S. epidermidis (MRSE, RP62A), K. pneumoniae (ATCC 13383), vancomycin-resistant Enterococcus faecalis (VREF, ATCC 700802), P. aeruginosa (ATCC 27853). One colony of each bacteria was inoculated in 4 mL TSB buffer at 37° C. overnight, which was then diluted 100 times, and the bacteria were allowed to grow to the mid-logarithmic phase. 50 μL hydantoin compounds in 2-fold serial dilution of TSB were added in the 96-well plate, then 50 μL diluted bacterial in TSB medium (1×10^6 CFU/mL) was added to each well. After 16 h of incubation at 37° C., the absorption at 600 nm wavelength on a Biotek Synergy HT microtiter plate reader was recorded. Minimum inhibitory concentrations were determined as the lowest concentrations that inhibited bacteria growth completely.

[2] = test system: panel of Gram-positive and Gram-negative bacteria; test: Antimicrobial activity against the whole panel of bacteria; format: cell-based; details: for antimicrobial activity across the tested bacterial strains: all tested strains; for antibacterial activity of compounds with HPLC RT values less than 26 min: statement relating activity to retention time
Description: as §1, §2

[3] = test system: methicillin-resistant S. epidermidis (MRSE, RP62A); test: Minimum inhibitory concentration (MIC) assay, MRSE; format: cell-based, Staphylococcus epidermidis; details: Gram positive, 16 h incubation; for MIC: Staphylococcus epidermidis, MRSE, read-out: MIC (μg/mL) MRSE
Description: as §1, §2

[4] = test system: E. coli (ATCC 25922); test: Minimum inhibitory concentration (MIC) assay, E. coli; format: cell-based, Escherichia coli; details: 16 h incubation; for MIC: Escherichia coli, ATCC25922, Gram negative, read-out: MIC (μg/mL) E. coli
Description: as §1, §2

[5] = test system: K. pneumoniae (ATCC 13383); test: Minimum inhibitory concentration (MIC) assay, K. pneumoniae; format: cell-based, Klebsiella pneumoniae; details: 16 h incubation; for MIC: Klebsiella pneumoniae, ATCC13383, Gram negative, read-out: MIC (μg/mL) K.P.
Description: as §1, §2

[6] = test system: methicillin-resistant S. aureus (MRSA, ATCC 33591); test: Minimum inhibitory concentration (MIC) assay, MRSA; format: cell-based, Staphylococcus aureus; details: for MIC: Staphylococcus aureus
Description: as §1, §2

[7] = test system: vancomycin-resistant Enterococcus faecalis (VREF, ATCC 700802); test: Minimum inhibitory concentration (MIC) assay, VREF; format: cell-based; details: 16 h incubation; for MIC: Enterococcus faecalis, ATCC700802, Gram positive, read-out: MIC (μg/mL) VREF
Description: as §1, §2

[8] = test system: red blood cells (RBCs) of mice; test: Hemolytic assay; format: cell-based
Description: Fresh red blood cells (RBCs) of mice were washed with 1×PBS buffer and centrifuged 10 min at 3500 rpm for 3 times until the supernatant was clear, then RBCs were diluted into 5% v/v suspension in 1×PBS. 50 μL compounds in PBS were 2-fold serially diluted in a 96-well plate, and incubated with 50 μL RBCs suspension for 1 h at 37° C. The mixture was then centrifuged for 10 min at 3500 rpm. Subsequently, 30 μL of the supernatant was added to 100 μL PBS, then the absorbance of mixture was read on a Biotek Synergy HT plate reader at 540 nm. The hemolytic activity was calculated by the formula % hemolysis=(Abssample−AbsPBS)/(AbsTriton−AbsPBS)×100%. 1% Triton X-100 were used as the positive control and 1×PBS buffer was used as the negative control.

[9] = Gram positive, ATCC 33591, 16 h incubation, read-out: MIC (μg/mL) MRSA
[10] = hemolytic activity, mouse RBCs, 1 h at 37° C.

MIC [1] [µg/mL] | MIC [3] [µg/mL] | MIC [4] [µg/mL] | MIC [5] [µg/mL] | MIC [6, 9] [µg/mL] | MIC [7] [µg/mL] | MIC (μg/mL) P.A. [1] [µg/mL] | MIC (μg/mL) MRSE [3] [µg/mL] | MIC (μg/mL) E. coli ([4]; Gram negative) [µg/mL] | MIC (μg/mL) K.P. ([5]; Gram negative) [µg/mL] | MIC (μg/mL) MRSA ([6]; Gram positive, ATCC 33591, 16 h incubation) [µg/mL] | MIC of MRSA ([6]; Table 2) [µg/mL] | MIC (μg/mL) VREF ([7]; Gram positive) [µg/mL] | MIC ([6]; Table 2, read-out: MIC of MRSA) [µg/mL] | MIC ([2]; range over most strains of the panel, read-out: MICs against most of bacteria) [µg/mL] | SMILES | antimicrobial activity across the tested bacterial strains [2] | antibacterial activity of compounds with HPLC RT values less than 26 min [2] | HC50 [8, 10] [µg/mL] | activity toward Pseudomonas aeruginosa ([1]; under the tested condition) | HC50 [8] [µg/mL]
> 50 | > 50 | > 50 | > 50 | > 50 | > 50 | – | – | – | – | – | – | – | – | – | CCCCCCCCCC(=O)N[C@@H](CCCCN)CN1CC(=O)N(CC)C1=O [Compound 1, (S)—N-(6-amino-1-(3-ethyl-2,4-dioxoimidazolidin-1-yl)hexan-2-yl)decanamide] | doesn't exhibit any activity | no apparent antibacterial activity | – | – | –
> 50 | > 50 | 12.5 | > 50 | > 50 | > 50 | – | – | – | – | – | – | – | – | – | CCCCCCCCCCCC(=O)N[C@@H](CCCCN)CN1CC(=O)N(CC)C1=O [Compound 2, (S)—N-(6-amino-1-(3-ethyl-2,4-dioxoimidazolidin-1-yl)hexan-2-yl)dodecanamide] | – | no apparent antibacterial activity | – | – | –
12.5 | 6.25 | 3.12 | 6.25 | 6.25 | 6.25 | 12.5 | – | – | – | – | – | – | – | – | CCCCCCCCCCCCCC(=O)N[C@@H](CCCCN)CN1CC(=O)N(CC)C1=O [Compound 3, (S)—N-(6-amino-1-(3-ethyl-2,4-dioxoimidazolidin-1-yl)hexan-2-yl)tetradecanamide] | comparable activity to nitrofurantoin against most strains | – | 90 | – | –
> 50 | 3.12 | 3.12 | 12.5 | 3.12 | 3.12 | – | – | – | – | – | – | – | – | – | CCCCCCCCCCCCCCCC(=O)N[C@@H](CCCCN)CN1CC(=O)N(CC)C1=O [Compound 4, (S)—N-(6-amino-1-(3-ethyl-2,4-dioxoimidazolidin-1-yl)hexan-2-yl)palmitamide] | – | no apparent antibacterial activity | – | abolishes its activity | –
> 50 | > 50 | > 50 | > 50 | > 50 | > 50 | – | – | – | – | – | – | – | – | – | CCCCCCCCCC(=O)N[C@@H](CCCCN)CN1CC(=O)N(CCCC)C1=O [Compound 5, (S)—N-(6-amino-1-(3-butyl-2,4-dioxoimidazolidin-1-yl)hexan-2-yl)decanamide] | doesn't have any antimicrobial activity | no apparent antibacterial activity | – | – | –
25 | 25 | 6.25 | 12.5 | 12.5 | 25 | – | – | – | – | – | – | – | – | – | CCCCCCCCCCCC(=O)N[C@@H](CCCCN)CN1CC(=O)N(CCCC)C1=O [Compound 6, (S)—N-(6-amino-1-(3-butyl-2,4-dioxoimidazolidin-1-yl)hexan-2-yl)dodecanamide] | – | no apparent antibacterial activity | 80 | – | –
> 50 | > 50 | 12.5 | 25 | 25 | > 50 | – | – | – | – | – | – | – | – | – | CCCCCCCCCC(=O)N[C@@H](CCCCN)CN1CC(=O)N(C2CCCCC2)C1=O [Compound 9, (S)—N-(6-amino-1-(3-cyclohexyl-2,4-dioxoimidazolidin-1-yl)hexan-2-yl)decanamide] | starts to show activity toward a few bacterial strains | no apparent antibacterial activity | – | – | –
12.5 | 6.25 | 6.25 | 6.25 | 6.25 | 12.5 | – | – | – | – | – | – | – | – | – | CCCCCCCCCCCC(=O)N[C@@H](CCCCN)CN1CC(=O)N(C2CCCCC2)C1=O [Compound 10, (S)—N-(6-amino-1-(3-cyclohexyl-2,4-dioxoimidazolidin-1-yl)hexan-2-yl)dodecanamide] | – | – | 100 | – | –
– | – | – | – | – | – | 12.5 | 6.25 | 6.25 | 6.25 | 6.25 | 6.25 | 12.5 | – | – | CCCCCCCCCC(=O)N[C@@H](CCCCN)CN1CC(=O)N(C23CC4CC(CC(C4)C2)C3)C1=O [Compound 13, N—((S)-1-(3-((3R,5R,7R)-adamantan-1-yl)-2,4-dioxoimidazolidin-1-yl)-6-aminohexan-2-yl) decanamide] | exhibits decent activity across the panel of bacteria | – | – | – | 125
> 50 | > 50 | > 50 | > 50 | > 50 | > 50 | – | – | – | – | – | – | – | – | – | CCCCCCCCCC(=O)N[C@@H](CCCCN)CN1CC(=O)N(c2ccc(OC)cc2)C1=O [Compound 17, (S)—N-(6-amino-1-(3-(4-methoxyphenyl)-2,4-dioxoimidazolidin-1-yl)hexan-2-yl)decanamide] | – | no apparent antibacterial activity | – | – | –
6.25 | 6.25 | 6.25 | 6.25 | – | 12.5 | – | – | – | – | – | – | – | 6.25 | – | CCCCCCCCCC(=O)N[C@@H](CCCCN)CN1CC(=O)N(c2cccc(Cl)c2)C1=O [Compound 21, (S)—N-(6-amino-1-(3-(3-chlorophenyl)-2,4-dioxoimidazolidin-1-yl)hexan-2-yl)decanamide] | – | – | 100 | – | –
> 50 | 12.5 | > 50 | > 50 | 12.5 | 12.5 | – | – | – | – | – | – | – | – | – | CCCCCCCCCCCCCC(=O)N[C@@H](CCCCN)CN1CC(=O)N(c2cccc(Cl)c2)C1=O [Compound 23, (S)—N-(6-amino-1-(3-(3-chlorophenyl)-2,4-dioxoimidazolidin-1-yl)hexan-2-yl)tetradecanamide] | – | – | – | – | –
> 50 | 12.5 | > 50 | > 50 | 12.5 | 12.5 | – | – | – | – | – | – | – | – | – | CCCCCCCCCCCCCCCC(=O)N[C@@H](CCCCN)CN1CC(=O)N(c2cccc(Cl)c2)C1=O [Compound 24, (S)—N-(6-amino-1-(3-(3-chlorophenyl)-2,4-dioxoimidazolidin-1-yl)hexan-2-yl)palmitamide] | – | – | – | – | –
> 50 | > 50 | > 50 | > 50 | > 50 | > 50 | – | – | – | – | – | – | – | – | – | CCCCCCCCCCCC(=O)N[C@@H](Cc1ccccc1)CN1CC(=O)N(c2cccc(Cl)c2)C1=O [Compound 25, (S)—N-(1-(3-(3-chlorophenyl)-2,4-dioxoimidazolidin-1-yl)-3-phenylpropan-2-yl)dodecanamide] | fails to show any antimicrobial activity | no apparent antibacterial activity | – | – | –
> 50 | 6.25 | 6.25 | 25 | 12.5 | 12.5 | – | – | – | – | – | – | – | – | 6.25 to 25 | O=C1CN(/N=C/c2ccc([N+](=O)[O-])o2)C(=O)N1 [Compound 26, nitrofurantoin, reference compound] | – | – | – | – | –
